Assay results reported in patent publication US8192962B2, “Processes for detecting toxic substances” (Daikin Industries, Ltd., priority 2001, dated 2012).

Test system: Mitochondria-located protein genes
Assay: DNA chip mRNA expression in yeast, mitochondria-located protein genes (Table 2)
Format: cell-based, Saccharomyces cerevisiae S288C
Conditions: cells incubated two hours with the chemical substance
Method in brief: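 Measured as treated-to-untreated fluorescence ratio on a full-genome yeast DNA chip. Cells (S288C, YPD, 25° C.) were exposed in log phase for two hours to one chemical, dosed to curb growth without killing.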

`CCCCCCCCCCCCOS(=O)(=O)[O-].[Na+]` [(18), sodium lauryl sulfate] was tested, and the “The level of expressed mRNA in the presence of chemical substance/The level of expressed mRNA in the absence of chemical substance” value (yeast gene YJR121W) was 1.4, the “The level of expressed mRNA in the presence of chemical substance/The level of expressed mRNA in the absence of chemical substance” value (yeast gene YKL003C) was 1.2 and the “The level of expressed mRNA in the presence of chemical substance/The level of expressed mRNA in the absence of chemical substance” value (yeast gene YKL016C) was 1.7. The “The level of expressed mRNA in the presence of chemical substance/The level of expressed mRNA in the absence of chemical substance” value (yeast gene YKL141W) was 1.8, the “The level of expressed mRNA in the presence of chemical substance/The level of expressed mRNA in the absence of chemical substance” value (yeast gene YKL142W) was 3.6 and the “The level of expressed mRNA in the presence of chemical substance/The level of expressed mRNA in the absence of chemical substance” value (yeast gene YKL148C) was 1.0. The “The level of expressed mRNA in the presence of chemical substance/The level of expressed mRNA in the absence of chemical substance” value (yeast gene YKL170W) was 1.4, the “The level of expressed mRNA in the presence of chemical substance/The level of expressed mRNA in the absence of chemical substance” value (yeast gene YKL194C) was 1.1 and the “The level of expressed mRNA in the presence of chemical substance/The level of expressed mRNA in the absence of chemical substance” value (yeast gene YKR066C) was 1.1. The “The level of expressed mRNA in the presence of chemical substance/The level of expressed mRNA in the absence of chemical substance” value (yeast gene YLL041C) was 1.7, the “The level of expressed mRNA in the presence of chemical substance/The level of expressed mRNA in the absence of chemical substance” value (yeast gene YLR038C) was 2.1 and the “The level of expressed mRNA in the presence of chemical substance/The level of expressed mRNA in the absence of chemical substance” value (yeast gene YLR259C) was 1.0. The “The level of expressed mRNA in the presence of chemical substance/The level of expressed mRNA in the absence of chemical substance” value (yeast gene YLR295C) was 1.5, the “The level of expressed mRNA in the presence of chemical substance/The level of expressed mRNA in the absence of chemical substance” value (yeast gene YLR304C) was 0.7 and the “The level of expressed mRNA in the presence of chemical substance/The level of expressed mRNA in the absence of chemical substance” value (yeast gene YLR348C) was 1.0. For the same compound, the “The level of expressed mRNA in the presence of chemical substance/The level of expressed mRNA in the absence of chemical substance” value (yeast gene YLR395C) was 2.3, the “The level of expressed mRNA in the presence of chemical substance/The level of expressed mRNA in the absence of chemical substance” value (yeast gene YML054C) was 1.6 and the “The level of expressed mRNA in the presence of chemical substance/The level of expressed mRNA in the absence of chemical substance” value (yeast gene YML120C) was 1.6. The “The level of expressed mRNA in the presence of chemical substance/The level of expressed mRNA in the absence of chemical substance” value (yeast gene YML129C) was 1.3, the “The level of expressed mRNA in the presence of chemical substance/The level of expressed mRNA in the absence of chemical substance” value (yeast gene YMR023C) was 1.4 and the “The level of expressed mRNA in the presence of chemical substance/The level of expressed mRNA in the absence of chemical substance” value (yeast gene YMR035W) was 2.4. For the same compound, the “The level of expressed mRNA in the presence of chemical substance/The level of expressed mRNA in the absence of chemical substance” value (yeast gene YMR083W) was 1.1, the “The level of expressed mRNA in the presence of chemical substance/The level of expressed mRNA in the absence of chemical substance” value (yeast gene YMR089C) was 1.1 and the “The level of expressed mRNA in the presence of chemical substance/The level of expressed mRNA in the absence of chemical substance” value (yeast gene YMR152W) was 0.9. The “The level of expressed mRNA in the presence of chemical substance/The level of expressed mRNA in the absence of chemical substance” value (yeast gene YMR203W) was 0.7, the “The level of expressed mRNA in the presence of chemical substance/The level of expressed mRNA in the absence of chemical substance” value (yeast gene YMR267W) was 1.3 and the “The level of expressed mRNA in the presence of chemical substance/The level of expressed mRNA in the absence of chemical substance” value (yeast gene YNL055C) was 1.7. For the same compound, the “The level of expressed mRNA in the presence of chemical substance/The level of expressed mRNA in the absence of chemical substance” value (yeast gene YNL071W) was 1.2, the “The level of expressed mRNA in the presence of chemical substance/The level of expressed mRNA in the absence of chemical substance” value (yeast gene YNL073W) was 1.0 and the “The level of expressed mRNA in the presence of chemical substance/The level of expressed mRNA in the absence of chemical substance” value (yeast gene YNL104C) was 0.9. The “The level of expressed mRNA in the presence of chemical substance/The level of expressed mRNA in the absence of chemical substance” value (yeast gene YNL256W) was 0.6, the “The level of expressed mRNA in the presence of chemical substance/The level of expressed mRNA in the absence of chemical substance” value (yeast gene YOL096C) was 1.2 and the “The level of expressed mRNA in the presence of chemical substance/The level of expressed mRNA in the absence of chemical substance” value (yeast gene YOR020C) was 1.7. For the same compound, the “The level of expressed mRNA in the presence of chemical substance/The level of expressed mRNA in the absence of chemical substance” value (yeast gene YOR037W) was 1.6, the “The level of expressed mRNA in the presence of chemical substance/The level of expressed mRNA in the absence of chemical substance” value (yeast gene YOR100C) was 0.8 and the “The level of expressed mRNA in the presence of chemical substance/The level of expressed mRNA in the absence of chemical substance” value (yeast gene YOR130C) was 1.1. For the same compound, the “The level of expressed mRNA in the presence of chemical substance/The level of expressed mRNA in the absence of chemical substance” value (yeast gene YOR142W) was 1.0, the “The level of expressed mRNA in the presence of chemical substance/The level of expressed mRNA in the absence of chemical substance” value (yeast gene YOR150W) was 1.3 and the “The level of expressed mRNA in the presence of chemical substance/The level of expressed mRNA in the absence of chemical substance” value (yeast gene YOR176W) was 2.1. For the same compound, the “The level of expressed mRNA in the presence of chemical substance/The level of expressed mRNA in the absence of chemical substance” value (yeast gene YOR187W) was 1.3, the “The level of expressed mRNA in the presence of chemical substance/The level of expressed mRNA in the absence of chemical substance” value (yeast gene YOR316C) was 1.0 and the “The level of expressed mRNA in the presence of chemical substance/The level of expressed mRNA in the absence of chemical substance” value (yeast gene YPL040C) was 1.1. The “The level of expressed mRNA in the presence of chemical substance/The level of expressed mRNA in the absence of chemical substance” value (yeast gene YPL134C) was 1.3, the “The level of expressed mRNA in the presence of chemical substance/The level of expressed mRNA in the absence of chemical substance” value (yeast gene YPL135W) was 1.7 and the “The level of expressed mRNA in the presence of chemical substance/The level of expressed mRNA in the absence of chemical substance” value (yeast gene YPL215W) was 1.1. The “The level of expressed mRNA in the presence of chemical substance/The level of expressed mRNA in the absence of chemical substance” value (yeast gene YPL262W) was 1.2, the “The level of expressed mRNA in the presence of chemical substance/The level of expressed mRNA in the absence of chemical substance” value (yeast gene YPR024W) was 0.8 and the “The level of expressed mRNA in the presence of chemical substance/The level of expressed mRNA in the absence of chemical substance” value (yeast gene YPR037C) was 1.7. The “The level of expressed mRNA in the presence of chemical substance/The level of expressed mRNA in the absence of chemical substance” value (yeast gene YPR047W) was 1.5 and the “The level of expressed mRNA in the presence of chemical substance/The level of expressed mRNA in the absence of chemical substance” value (yeast gene YPR134W) was 1.2.
